Bounds are passed on as bounds.

For the first assay, the target named is T1, human GPR119 receptor (Homo sapiens, UniProt Q8TDV5, S329A/T327A).
T1 construct: N-terminal leader […]; expressed in transfected cells
T1 sequence (Q8TDV5 with tags, fused parts or gaps T327A/S329A): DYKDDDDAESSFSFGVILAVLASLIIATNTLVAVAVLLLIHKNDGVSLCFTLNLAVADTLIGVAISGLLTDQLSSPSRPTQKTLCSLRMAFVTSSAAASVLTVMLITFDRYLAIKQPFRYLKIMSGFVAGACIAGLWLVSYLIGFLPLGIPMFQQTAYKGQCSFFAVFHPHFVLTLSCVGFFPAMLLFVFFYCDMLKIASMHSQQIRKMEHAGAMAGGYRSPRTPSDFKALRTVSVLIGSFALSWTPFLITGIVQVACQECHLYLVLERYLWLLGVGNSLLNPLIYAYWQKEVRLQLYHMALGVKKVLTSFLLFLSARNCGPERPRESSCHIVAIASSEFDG
In words: cAMP assay (LANCE cAMP-384) in HEK293 cells stably expressing mutant human GPR119 receptor. It counts as cell-based. Particulars: HEK293, 20 min; at 10 μM; printed in EC50 column of the 36th table; read-out: stimulation in % at 10 μM. In outline: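 Agonist EC50 came from nonlinear regression over 12 concentrations (30 μM–100 pM), with % stimulation at 10 μM where no EC50 was obtained. Cells: stable HEK293 with mutant human GPR119 (T327A/S329A), 20 min compound at 37° C; cAMP read by LANCE kit with standard curve.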
For orientation: cAMP levels reflect the balance of adenylyl cyclase and phosphodiesterase activity.
In the case of `CS(=O)(=O)c1ccc(N2CCC(=NOC3CCN(Cc4ccc5c(c4)CCO5)CC3)CC2)c(F)c1` [Example 66-35], the activation at 10 µM turned out to be 61%.

`CC(CCN1CCC(ON=C2CCN(c3ccc(S(C)(=O)=O)cc3F)CC2)CC1)c1ccccc1` (stereo not drawn) [Example 66-24]: the activation at 10 µM turned out to be 53%.

Staying with this assay, now noted: cAMP accumulation, HEK293 cells stably expressing mutant human GPR119; read-out: EC50.
Regarding `CC(C)OC(=O)N1CCC(ON=C2CCN(c3nccnc3Cl)CC2)CC1` [Example 2-10], the EC50 was 363 nM.

As for `CC(C)OC(=O)N1CCC(ON=C2CCN(c3ccc(-c4cnco4)cc3F)CC2)CC1` [Example 20-2], the EC50 is 498 nM.

Regarding `CC(C)OC(=O)N1CCC(ON=C2CCN(c3cc(F)c(S(=O)(=O)C4CC4)cc3F)CC2)CC1` [Example 47-1, 4-[1-(4-Cyclopropanesulfonyl-2,5-difluoro-phenyl)-piperidin-4-ylideneaminooxy]-piperidine-1-carboxylic acid isopropyl ester], the EC50 is 43 nM.

For the compound `CC(CO)CNC(=O)c1cc(F)c(N2CCC(=NOC3CCN(C(=O)OC(C)C)CC3)CC2)cc1F` (stereo not drawn) [Example 2-77], the EC50 stood at 47 nM.

For the compound `CC(C)OC(=O)N1CCC(ON=C2CCN(c3cc(F)c(-n4cccc4)cc3F)CC2)CC1` [Example 22-2], the EC50 is 767 nM.

Take `CC(C)OC(=O)N1CCC(ON=C2CCN(c3ncc(F)cc3F)CC2)CC1` [Example 2-69]: the EC50 is 1020 nM.

With `Cc1cnccc1N1CCC(=NOC2CCN(C(=O)OC(C)C)CC2)CC1` [Example 2-51], the EC50 was 951 nM.

As to `CC(C)OC(=O)N1CCC(ON=C2CCN(c3cc(F)c(CN4CCN(C)C4=O)cc3F)CC2)CC1` [Example 15-2], the EC50 came out at 282 nM.

For the compound `CC(C)OC(=O)N1CCC(ON=C2CCN(c3cc(F)c(-c4cscn4)cc3F)CC2)CC1` [Example 27-19], the EC50 worked out at 3080 nM.

Take `Cc1ccn(Cc2cc(F)c(N3CCC(=NOC4CCN(C(=O)OC(C)C)CC4)CC3)cc2F)n1` [Example 14-9]: the EC50 was found to be 257 nM.

As to `CC(C)OC(=O)N1CCC(ON=C2CCN(c3cc(F)c([N+](=O)[O-])cc3F)CC2)CC1` [Example 2-62], the EC50 came to 304 nM.

`CC(C)OC(=O)N1CCC(ON=C2CCN(c3ncc(CO)cc3F)CC2)CC1` [Example 53-1, 4-(3′-Fluoro-5′-hydroxymethyl-2,3,5,6-tetrahydro-[1,2′]bipyridinyl-4-ylideneaminooxy)-piperidine-1-carboxylic acid isopropyl ester]: the EC50 was 224 nM.

As for `CC(C)OC(=O)N1CCC(ON=C2CCN(c3cc(F)c(-c4ccc5[nH]ccc5c4)cc3F)CC2)CC1` [Example 27-32], the EC50 came to 1380 nM.

Consider `CC(C)OC(=O)N1CCC(ON=C2CCN(c3cc(F)c(COC(=O)[C@@H](NC(=O)OC(C)(C)C)C(C)C)cc3F)CC2)CC1` [Example 42-1, 4-{1-[4-((S)-2-tert-Butoxycarbonylamino-3-methyl-butyryloxymethyl)-2,5-difluoro-phenyl]-piperidin-4-ylideneaminooxy}-piperidine-1-carboxylic acid isopropyl ester], for which the EC50 stood at 928 nM.

For the compound `CC(C)OC(=O)N1CCC(ON=C2CCN(c3cc(F)c(N(S(C)(=O)=O)S(C)(=O)=O)cc3F)CC2)CC1` [Example 2-63], the EC50 is over 10000 nM.

For `CC(C)OC(=O)N1CCC(ON=C2CCN(c3nncs3)CC2)CC1` [Example 2-14], the EC50 is over 10000 nM.

Consider `CC(C)OC(=O)N1CCC(ON=C2CCN(c3cc(F)c(-c4c[nH]cn4)cc3F)CC2)CC1` [Example 27-14], for which the EC50 worked out at 152 nM.

For the compound `CC(C)OC(=O)N1CCC(ON=C2CCN(c3cc(F)c(-c4ccoc4)cc3F)CC2)CC1` [Example 27-3], the EC50 stood at 591 nM.

The same assay, now with this note: the 15th table; read-out: EC50.
In the case of `CC(C)OC(=O)N1CCC(ON=C2CCN(c3cc(F)c(C(=O)N4CCC(CN(C)C)CC4)cc3F)CC2)CC1` [Example 29-47], the EC50 came to 264 nM.

Regarding `CC(C)OC(=O)N1CCC(ON=C2CCN(c3cc(F)c(C(=O)N4CCNCC4)cc3F)CC2)CC1` [Example 29-3], the EC50 amounted to 512 nM.

In the case of `CC(C)OC(=O)N1CCC(ON=C2CCN(c3cc(F)c(C(=O)N4CCC[C@@H]4CN)cc3F)CC2)CC1` [Example 29-50], the EC50 worked out at 133 nM.

Turning to `CC(C)OC(=O)N1CCC(ON=C2CCN(c3cc(F)c(C(=O)N4CCC[C@H]4CN)cc3F)CC2)CC1` [Example 29-58], the EC50 worked out at 189 nM.

The assay is the same for the next values; noted with them: the 19th table; unit inferred; read-out: EC 50.
In the case of `CCc1cnc(N2CCC(ON=C3CCN(c4cc(F)c(C(=O)N5CCC[C@@H](N)C5)cc4F)CC3)CC2)nc1` [Example 29-88], the EC50 came out at 221 nM.

Turning to `CCc1cnc(N2CCC(ON=C3CCN(c4cc(F)c(C(=O)N5C[C@@H]6C[C@H]5CN6)cc4F)CC3)CC2)nc1` [Example 29-115], the EC50 was determined as 2010 nM.

`CCc1cnc(N2CCC(ON=C3CCN(c4cc(F)c(C(=O)N5CCC[C@H](N)C5)cc4F)CC3)CC2)nc1` [Example 29-89]: the EC50 was 74 nM.

With `CCc1cnc(N2CCC(ON=C3CCN(c4cc(F)c(C(=O)NC5CCNC5)cc4F)CC3)CC2)nc1` (stereo not drawn) [Example 29-123], the EC50 was 407 nM.

With `CCc1cnc(N2CCC(ON=C3CCN(c4cc(F)c(C(=O)N5CCC[C@H]5CN)cc4F)CC3)CC2)nc1` [Example 29-133], the EC50 came out at 164 nM.

With `CCc1cnc(N2CCC(ON=C3CCN(c4cc(F)c(C(=O)NCC5CCCN5C)cc4F)CC3)CC2)nc1` (stereo not drawn) [Example 29-137], the EC50 came to 212 nM.

Still in this assay, the particulars now being: the 25th table; read-out: EC50.
On to `COC(=O)/C=C/c1cc(F)c(N2CCC(=NOC3CCN(C(=O)OC(C)C)CC3)CC2)cc1F` [Example 39-1, 4-{1-[2,5-Difluoro-4-((E)-2-methoxycarbonyl-vinyl)-phenyl]-piperidin-4-ylideneaminooxy}-piperidine-1-carboxylic acid isopropyl ester], for which the EC50 came out at 46 nM.

Still in this assay, the particulars now being: the 26th table; read-out: EC50.
In the case of `CC(C)OC(=O)N1CCC(ON=C2CCN(c3ncc(S(C)(=O)=O)cn3)CC2)CC1` [Example 46-4], the EC50 amounted to 157 nM.

On to `CC(C)OC(=O)N1CCC(ON=C2CCN(c3cc(F)c(S(C)(=O)=O)cc3F)CC2)CC1` [Example 46-2], for which the EC50 was found to be 28 nM.

Staying with this assay, now noted: the 27th table; read-out: EC50.
Turning to `CC(C)OC(=O)N1CCC(ON=C2CCN(c3cc(F)c(CO)cc3F)CC2)CC1` [Example 48-1, 4-[1-(2,5-Difluoro-4-hydroxymethyl-phenyl)-piperidin-4-ylideneaminooxy]-piperidine-1-carboxylic acid isopropyl ester], the EC50 came to 9 nM.

Still in this assay, the particulars now being: the 28th table; read-out: EC50.
Take `CC(C)OC(=O)N1CCC(ON=C2CCN(c3ncc(-n4cncn4)cn3)CC2)CC1` [Example 51-4]: the EC50 is 735 nM.

Still in this assay, the particulars now being: the 32nd table; read-out: EC50.
As for `Cc1csc(N2CCC(ON=C3CCN(c4ccc(S(C)(=O)=O)cc4F)CC3)CC2)n1` [Example 63-17], the EC50 is over 10000 nM.

As to `CS(=O)(=O)c1ccc(N2CCC(=NOC3CCN(c4ccc(S(C)(=O)=O)cc4F)CC3)CC2)c(F)c1` [Example 63-22], the EC50 was determined as 397 nM.

Staying with this assay, now noted: the 33rd table; read-out: EC50.
Consider `CC(C)[C@H](N)COC(=O)N1CCC(ON=C2CCN(c3ccc(S(C)(=O)=O)cc3F)CC2)CC1` [Example 64-37], for which the EC50 was over 10000 nM.

For `CCN(CC)CCCOC(=O)N1CCC(ON=C2CCN(c3ccc(S(C)(=O)=O)cc3F)CC2)CC1` [Example 64-29], the EC50 is over 10000 nM.

With `CC(N)COC(=O)N1CCC(ON=C2CCN(c3ccc(S(C)(=O)=O)cc3F)CC2)CC1` (stereo not drawn) [Example 64-35], the EC50 was over 10000 nM.

In the case of `COC(=O)CC(C)OC(=O)N1CCC(ON=C2CCN(c3ccc(S(C)(=O)=O)cc3F)CC2)CC1` (stereo not drawn) [Example 64-22], the EC50 is 193 nM.

As to `CS(=O)(=O)c1ccc(N2CCC(=NOC3CCN(C(=O)OC4CCNC4)CC3)CC2)c(F)c1` (stereo not drawn) [Example 64-36], the EC50 was over 10000 nM.

Consider `CC(CN(C)C)OC(=O)N1CCC(ON=C2CCN(c3ccc(S(C)(=O)=O)cc3F)CC2)CC1` (stereo not drawn) [Example 64-14], for which the EC50 was over 10000 nM.

Still in this assay, the particulars now being: the 34th table, compounds 65-1 to 65-24; read-out: EC50.
For `CC(C)S(=O)(=O)N1CCC(ON=C2CCN(c3ccc(S(C)(=O)=O)cc3F)CC2)CC1` [Example 65-16], the EC50 was over 10000 nM.

The same assay, now with this note: the 35th table, compounds 65-25 to 65-36; read-out: EC50.
Take `CS(=O)(=O)c1cc(F)c(N2CCC(=NOC3CCN(C(=O)Cc4ccccc4)CC3)CC2)cc1F` [Example 65-28]: the EC50 was found to be 240 nM.

The assay is the same for the next values; noted with them: the 36th table, compounds 66-1 to 66-51; read-out: EC50.
For `CS(=O)(=O)c1ccc(N2CCC(=NOC3CCN(Cc4ccccc4Cl)CC3)CC2)c(F)c1` [Example 66-17], the EC50 was found to be 661 nM.

With `CS(=O)(=O)c1ccc(N2CCC(=NOC3CCN(Cc4ccc(Br)cc4)CC3)CC2)c(F)c1` [Example 66-41], the EC50 came out at 609 nM.

Take `Cc1cccc(CN2CCC(ON=C3CCN(c4ccc(S(C)(=O)=O)cc4F)CC3)CC2)c1` [Example 66-25]: the EC50 worked out at 605 nM.

The same assay, now with this note: the 43rd table, compounds 75-1 to 75-38; read-out: EC50.
For `CC(C)OC(=O)N1CCC(ON=C2CCN(c3cc(F)c(CC(=O)N4CC[C@H](CN)C4)cc3F)CC2)CC1` [Example 75-15], the EC50 worked out at 29 nM.

On to `CC(C)OC(=O)N1CCC(ON=C2CCN(c3cc(F)c(CC(=O)NCCN)cc3F)CC2)CC1` [Example 75-24], for which the EC50 was 410 nM.

Staying with this assay, now noted: the 44th table, compounds 77-1 to 77-14; read-out: EC50.
In the case of `CCc1cnc(N2CCC(ON=C3CCN(c4cc(F)c(CC(=O)NC5CCNCC5)cc4F)CC3)CC2)nc1` [Example 77-10], the EC50 came to 20 nM.

The values above are taken from patent US8293729B2 (Boehringer Ingelheim International GmbH, priority 2009, dated 2012).
